Source: article PMC10620772, “Design, synthesis, and biological evaluation of new pyrimidine-5-carbonitrile derivatives as novel anti-cancer, dual EGFR^WT/COX-2 inhibitors with docking studies” (RSC Advances, 2023)

Assays:
Test in all cases: NCI60 antitumor screening
Assay type in all cases: cell-based, human
CCRF-CEM = conditions: Homo sapiens; 10 μM single dose; CCRF-CEM (leukaemia); read-out: growth inhibition percent (GI%)
MOLT-4 = conditions: Homo sapiens; 10 μM single dose; MOLT-4 (leukaemia); read-out: growth inhibition percent (GI%)
SNB-19 = conditions: Homo sapiens; 10 μM single dose; SNB-19 (CNS cancer); read-out: growth inhibition percent (GI%)
HCT-15 = conditions: Homo sapiens; 10 μM single dose; HCT-15 (colon cancer); read-out: growth inhibition percent (GI%)
A498 = conditions: Homo sapiens; 10 μM single dose; A498 (renal cancer); read-out: growth inhibition percent (GI%)
SF-268 = conditions: Homo sapiens; 10 μM single dose; SF-268 (CNS cancer); read-out: growth inhibition percent (GI%)
OVCAR-3 = conditions: Homo sapiens; 10 μM single dose; OVCAR-3 (ovarian cancer); read-out: growth inhibition percent (GI%)
SF-539 = tested on: SF-539
HOP-62 = tested on: HOP-62
U251 = conditions: Homo sapiens, U-251; 10 μM single dose; U251 (CNS cancer); read-out: growth inhibition percent (GI%)
SK-MEL-5 = conditions: Homo sapiens; 10 μM single dose; SK-MEL-5 (melanoma); read-out: growth inhibition percent (GI%)
ACHN = conditions: Homo sapiens; 10 μM single dose; ACHN (renal cancer); read-out: growth inhibition percent (GI%)
T-47D = conditions: Homo sapiens, T47D; 10 μM single dose; T-47D (breast cancer); read-out: growth inhibition percent (GI%)
HT29 = conditions: Homo sapiens, HT-29; 10 μM single dose; HT29 (colon cancer); read-out: growth inhibition percent (GI%)
HS 578T = tested on: HS 578T
IGROV1 = conditions: Homo sapiens, IGROV-1; 10 μM single dose; IGROV1 (ovarian cancer); read-out: growth inhibition percent (GI%)
NCI-H522 = conditions: Homo sapiens; 10 μM single dose; NCI-H522 (non-small cell lung cancer); read-out: growth inhibition percent (GI%)
SN12C = conditions: Homo sapiens; 10 μM single dose; SN12C (renal cancer); read-out: growth inhibition percent (GI%)
KM12 = conditions: Homo sapiens; 10 μM single dose; KM12 (colon cancer); read-out: growth inhibition percent (GI%)
TK-10 = conditions: Homo sapiens; 10 μM single dose; TK-10 (renal cancer); read-out: growth inhibition percent (GI%)
K-562 = tested on: K-562
SF-295 = conditions: Homo sapiens; 10 μM single dose; SF-295 (CNS cancer); read-out: growth inhibition percent (GI%)
A549/ATCC = conditions: Homo sapiens; 10 μM single dose; A549/ATCC (non-small cell lung cancer); read-out: growth inhibition percent (GI%)
UACC-257 = conditions: Homo sapiens; 10 μM single dose; UACC-257 (melanoma); read-out: growth inhibition percent (GI%)
MALME-3M = conditions: Homo sapiens; 10 μM single dose; MALME-3M (melanoma); read-out: growth inhibition percent (GI%)
HL-60(TB) = conditions: Homo sapiens; 10 μM single dose; HL-60(TB) (leukaemia); read-out: growth inhibition percent (GI%)
NCI-H460 = conditions: Homo sapiens; 10 μM single dose; NCI-H460 (non-small cell lung cancer); read-out: growth inhibition percent (GI%)
NCI-H322M = conditions: Homo sapiens; 10 μM single dose; NCI-H322M (non-small cell lung cancer); read-out: growth inhibition percent (GI%)
MDA-MB-435 = conditions: Homo sapiens; 10 μM single dose; MDA-MB-435 (melanoma); read-out: growth inhibition percent (GI%)
CAKI-1 = conditions: Homo sapiens; 10 μM single dose; CAKI-1 (renal cancer); read-out: growth inhibition percent (GI%)
OVCAR-5 = conditions: Homo sapiens; 10 μM single dose; OVCAR-5 (ovarian cancer); read-out: growth inhibition percent (GI%)
MCF7 = conditions: Homo sapiens; 10 μM single dose; MCF7 (breast cancer); read-out: growth inhibition percent (GI%)
MDA-MB-468 = conditions: Homo sapiens; 10 μM single dose; MDA-MB-468 (breast cancer); read-out: growth inhibition percent (GI%)
786–0 = tested on: 786–0
SNB-75 = tested on: SNB-75
PC-3 = conditions: Homo sapiens; 10 μM single dose; PC-3 (prostate cancer); read-out: growth inhibition percent (GI%)
M14 = conditions: Homo sapiens; 10 μM single dose; M14 (melanoma); read-out: growth inhibition percent (GI%)

`CN1CCN(c2nc(SCc3ccccc3)nc(-c3ccc(F)cc3)c2C#N)CC1` [4i, 2-(Benzylthio)-4-(4-fluorophenyl)-6-(4-methylpiperazin-1-yl) pyrimidine-5-carbonitrile] was tested, and the inhibition at 10 µM (CCRF-CEM) was 37.9%, the inhibition at 10 µM (MOLT-4) was 49.8% and the inhibition at 10 µM (SNB-19) was 10%. It also gave an inhibition at 10 µM (HCT-15) of 46.8%, an inhibition at 10 µM (A498) of 12.5% and an inhibition at 10 µM (SF-268) of 26.8%. The inhibition at 10 µM (OVCAR-3) was 14.4%, the GI% (SF-539; 10 μM one-dose, Table 1) was “— (GI value > 70%)” and the inhibition at 10 µM (SF-539; Homo sapiens, 10 μM single dose, SF-539 (CNS cancer), read-out: growth inhibition percent (GI%)) was 14.4%. The GI% (HOP-62; 10 μM one-dose, Table 1) was “— (GI value > 70%)”, the inhibition at 10 µM (HOP-62; Homo sapiens, 10 μM single dose, HOP-62 (non-small cell lung cancer), read-out: growth inhibition percent (GI%)) was 10.3% and the inhibition at 10 µM (U251) was less than 10%. For the same compound, the inhibition at 10 µM (SK-MEL-5) was 33.6%, the inhibition at 10 µM (ACHN) was 14.8% and the inhibition at 10 µM (T-47D) was 42.5%. For the same compound, the inhibition at 10 µM (HT29) was 67%, the GI% (HS 578T; 10 μM one-dose, Table 1) was “— (GI value > 70%)” and the inhibition at 10 µM (HS 578T; Homo sapiens, 10 μM single dose, HS 578T (breast cancer), read-out: growth inhibition percent (GI%)) was 32%. The inhibition at 10 µM (IGROV1) was less than 10%, the inhibition at 10 µM (NCI-H522) was 31.7% and the inhibition at 10 µM (SN12C) was 12.6%. It also gave an inhibition at 10 µM (KM12) of 19.1%, an inhibition at 10 µM (TK-10) of less than 10% and a GI% (K-562; 10 μM one-dose, Table 1) of 73.15%. It also gave an inhibition at 10 µM (K-562; Homo sapiens, 10 μM single dose, (leukaemia), read-out: growth inhibition percent (GI%)) of 73.2%, an inhibition at 10 µM (SF-295) of 12.3% and an inhibition at 10 µM (A549/ATCC) of 38.3%. It also gave an inhibition at 10 µM (UACC-257) of 27.8%, an inhibition at 10 µM (MALME-3M) of less than 10% and an inhibition at 10 µM (HL-60(TB)) of 36.5%. For the same compound, the inhibition at 10 µM (NCI-H460) was 35.1%, the inhibition at 10 µM (NCI-H322M) was 16% and the inhibition at 10 µM (MDA-MB-435) was 12.8%. The inhibition at 10 µM (CAKI-1) was 37.9%, the inhibition at 10 µM (OVCAR-5) was less than 10% and the inhibition at 10 µM (MCF7) was 30.8%. The inhibition at 10 µM (MDA-MB-468) was 29.2%, the GI% (786–0; 10 μM one-dose, Table 1) was “— (GI value > 70%)” and the inhibition at 10 µM (786–0; Homo sapiens, 10 μM single dose, 786–0 (renal cancer), read-out: growth inhibition percent (GI%)) was 29.3%. For the same compound, the GI% (SNB-75; 10 μM one-dose, Table 1) was “— (GI value > 70%)”, the inhibition at 10 µM (SNB-75; Homo sapiens, 10 μM single dose, SNB-75 (CNS cancer), read-out: growth inhibition percent (GI%)) was 41% and the inhibition at 10 µM (PC-3) was 31.9%. For the same compound, the inhibition at 10 µM (M14) was 18.1%.
